Data published in patent US10836758B2, “Acyl sulfonamide NaV1.7 inhibitors” (BRISTOL-MYERS SQUIBB COMPANY, priority 2016, dated 2020).

target: NaV1.7 (Homo sapiens (Human), UniProt Q15858); assay: NaV1.7 IC50 of Table 1 (IonWorks Barracuda population patch clamp or ligand binding assay; table does not say which); format: cell-based; conditions: HEK 293 cells expressing NaV1.7
Procedure: Ion Works Barracuda population patch clamp (PPC). PPC measurements were performed using an IonWorks Barracuda instrument (Molecular Devices Corporation, Union City, Calif.) using either PatchPlate™ PPC substrates (Molecular Devices Corporation) with 64 apertures per well. The ability to average currents from 64 recordings from each well greatly improves data consistency and recording success rates in the measurement of NaV1.7 mediated ionic currents. Calculated leak current was digitally subtracted from the total cell NaV1.7 current for each sample point acquired.
NaV1.7 currents were elicited by a voltage clamp protocol designed to bias the NaV1.7 channels to their inactivated state as follows. […] This was followed by a relatively brief hyperpolarization to −100 mv for 300 ms, then a 20 msec test pulse to −20 mV to elicit the NaV1.7 current used to measure the pharmacology of all test compounds. Compounds were incubated for 600 sec between the pre- and post-compound reads. […] The same solutions were used to record NaV1.5 currents, with the following voltage clamp protocol. NaV1.5 currents were elicited by a voltage clamp protocol designed to bias the NaV1.5 channels to their inactivated state as follows. […] This was followed by a relatively brief hyperpolarization to −100 mv for 30 ms, then a 20 msec test pulse to −10 mV to elicit the NaV1.5 current used to measure the pharmacology of all test compounds.
HEK 293 cells expressing NaV1.7 and NaV1.5 channels, were used (Essen Biosciences, Ann Arbor, Mich.). […] Cells were grown to 70% to 90% confluence in a flask and removed from the incubator (37° C., 5% CO2) 1 to 3 days after plating. Growth medium was aspirated from the culture flasks. […] Next a total of 2 mL TrypLE (Gibco) solution was added, and the flasks containing cells were sat for 3 min at RT, after which, the cells became visibly rounded and were easily dislodged from the bottom of the flask with a few brief taps on a solid surface. A total of 8 mL of media was added to the flask to inactivate the TrypLE, and the mixture was centrifuged at 910 rpm for 4 min. The cell supernatant was decanted, and the cell pellets were resuspended in 5-6 mL of external solution followed by gentle triturations using a 10 ml pipette, and transferred to a 15 ml conical tube and immediately brought to the IW Barracuda instrument.
Peak membrane currents were analyzed with IW Barracuda software and exported to Excel for further analysis. Concentration response curve fitting was performed with BMS in-house software. IC50 values were obtained by fits of the Hill equation to the average percent inhibition data plotted versus compound concentration. […] Results are reported in Table 1 (NaV1.7 Barra IC50 in nM and NaV1.5 Barra IC50 in nM).
hNaV1.7 binding affinities were determined with a filtration binding assay using purified membranes from HEK293 cells stably expressing hNaV1.7. HEK293 cells from a 10-stack cell culture flask (approximately 10^10 cells) were dissociated, frozen, and stored at −80° C. To prepare membranes, the frozen cell pellet was thawed and suspended in 6 ml hypotonic lysis buffer (50 mM HEPES, 0.1% mammalian protease inhibitor cocktail). 1 ml of resuspended cells was added to an additional 6 ml of lysis buffer and homogenized with 30 strokes of a tight pestle in a glass homogenizer. Homogenate was centrifuged at 1000×g for 10 minutes at 4° C. and the resulting supernatant was further centrifuged at 38,500×g for 60 minutes at 4° C. The resulting pellet was resuspended in binding buffer (50 mM HEPES, 130 mM NaCl, 5.4 mM KCl, 0.8 mM MgCl2, 5 mM glucose, pH 7.4) and needle homogenized with a 25 gauge needle. Protein concentration was determined with a BCA protein assay. Purified membranes were aliquoted, flash frozen in an ethyl alcohol dry ice bath, and stored at −80° C.

Chain of NaV1.7 (Q15858 whole entry): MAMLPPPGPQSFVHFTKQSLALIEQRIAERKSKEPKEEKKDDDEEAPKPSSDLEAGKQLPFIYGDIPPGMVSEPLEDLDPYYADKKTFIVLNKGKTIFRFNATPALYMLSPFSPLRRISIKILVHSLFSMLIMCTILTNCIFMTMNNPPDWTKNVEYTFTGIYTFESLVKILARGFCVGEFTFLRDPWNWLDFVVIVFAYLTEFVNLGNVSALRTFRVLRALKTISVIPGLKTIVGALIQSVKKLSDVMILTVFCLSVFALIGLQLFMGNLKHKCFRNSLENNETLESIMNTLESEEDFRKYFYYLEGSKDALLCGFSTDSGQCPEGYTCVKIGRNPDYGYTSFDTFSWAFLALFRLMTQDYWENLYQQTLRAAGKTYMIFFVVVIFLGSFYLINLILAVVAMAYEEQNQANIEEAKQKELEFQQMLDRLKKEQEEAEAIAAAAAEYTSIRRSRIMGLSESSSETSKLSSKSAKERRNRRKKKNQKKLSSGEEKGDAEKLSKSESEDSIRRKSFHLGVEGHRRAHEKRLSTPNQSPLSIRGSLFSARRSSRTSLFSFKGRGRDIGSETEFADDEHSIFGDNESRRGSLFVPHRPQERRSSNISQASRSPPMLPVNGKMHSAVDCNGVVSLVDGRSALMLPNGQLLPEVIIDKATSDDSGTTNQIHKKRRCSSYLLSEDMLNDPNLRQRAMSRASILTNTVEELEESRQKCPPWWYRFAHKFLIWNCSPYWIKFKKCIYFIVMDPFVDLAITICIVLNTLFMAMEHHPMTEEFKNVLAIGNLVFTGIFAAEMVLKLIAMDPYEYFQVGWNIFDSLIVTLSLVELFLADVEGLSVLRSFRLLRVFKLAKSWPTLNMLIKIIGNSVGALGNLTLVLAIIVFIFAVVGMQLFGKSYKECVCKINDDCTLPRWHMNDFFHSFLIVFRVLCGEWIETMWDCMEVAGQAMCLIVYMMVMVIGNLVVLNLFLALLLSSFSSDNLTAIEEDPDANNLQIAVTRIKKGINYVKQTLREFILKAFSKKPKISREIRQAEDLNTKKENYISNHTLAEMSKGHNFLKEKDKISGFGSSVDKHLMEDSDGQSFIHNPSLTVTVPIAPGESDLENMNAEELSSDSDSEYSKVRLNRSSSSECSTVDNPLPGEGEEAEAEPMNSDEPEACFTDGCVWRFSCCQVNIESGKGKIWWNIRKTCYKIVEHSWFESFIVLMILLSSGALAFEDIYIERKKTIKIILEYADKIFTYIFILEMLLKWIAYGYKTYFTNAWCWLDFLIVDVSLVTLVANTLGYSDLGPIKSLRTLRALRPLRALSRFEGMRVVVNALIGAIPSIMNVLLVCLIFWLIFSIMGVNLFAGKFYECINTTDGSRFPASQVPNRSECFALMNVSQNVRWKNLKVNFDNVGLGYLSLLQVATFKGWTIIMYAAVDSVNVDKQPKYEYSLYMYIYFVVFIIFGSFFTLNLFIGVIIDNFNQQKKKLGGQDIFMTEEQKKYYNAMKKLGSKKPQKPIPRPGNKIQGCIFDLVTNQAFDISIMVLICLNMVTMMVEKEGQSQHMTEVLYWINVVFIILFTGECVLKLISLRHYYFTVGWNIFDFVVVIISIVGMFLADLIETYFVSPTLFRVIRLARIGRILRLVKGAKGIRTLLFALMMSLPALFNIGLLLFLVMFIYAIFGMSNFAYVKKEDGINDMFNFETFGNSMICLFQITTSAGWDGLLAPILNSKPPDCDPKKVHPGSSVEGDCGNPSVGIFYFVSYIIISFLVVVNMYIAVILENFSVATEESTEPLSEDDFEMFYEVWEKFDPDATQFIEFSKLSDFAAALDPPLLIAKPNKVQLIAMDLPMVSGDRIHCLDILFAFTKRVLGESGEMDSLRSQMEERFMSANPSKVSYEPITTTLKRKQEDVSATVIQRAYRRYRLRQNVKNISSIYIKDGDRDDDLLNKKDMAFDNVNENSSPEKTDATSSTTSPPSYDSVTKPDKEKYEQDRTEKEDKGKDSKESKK

Row | SMILES | IC50 [nM]
1 | CNC1CCC(COc2cc(F)c(S(=O)(=O)Nc3ncns3)cc2F)(Cc2ccc(Cl)c(F)c2)CC1 (stereo not drawn) [Example 63, 4-((1-(4-Chloro-3-fluorobenzyl)-4-(methylamino)cyclohexyl)methoxy)-2,5-difluoro-N-(1,2,4-thiadiazol-5-yl)benzenesulfonamide] | 68
2 | O=S(=O)(Nc1nccs1)c1cc(Cl)c(NCCC2CCCNC2)cc1F (stereo not drawn) [Example 2, 5-Chloro-2-fluoro-4-((2-(piperidin-3-yl)ethyl)amino)-N-(thiazol-2-yl)benzenesulfonamide] | 12
3 | NC1CCC(CCOc2cc(F)c(S(=O)(=O)Nc3ncns3)cc2F)CC1 (stereo not drawn) [Example 60, 4-(2-(4-Aminocyclohexyl)ethoxy)-2,5-difluoro-N-(1,2,4-thiadiazol-5-yl)benzenesulfonamide] | 367
4 | O=S(=O)(Nc1nccs1)c1cc(Cl)c(N[C@H]2CC[C@@H](O)CC2)cc1F [Example 36, 5-Chloro-2-fluoro-4-(((1s,4s)-4-hydroxycyclohexyl)amino)-N-(thiazol-2-yl)benzenesulfonamide] | 210
5 | O=S(=O)(Nc1nccs1)c1cc(Cl)c(NC[C@@H]2CCCNC2)cc1F [Example 43, (R)-5-Chloro-2-fluoro-4-((piperidin-3-ylmethyl)amino)-N-(thiazol-2-yl)benzenesulfonamide] | 272
6 | O=S(=O)(Nc1nccs1)c1cc(Cl)c(NC2CCC3CNCC32)cc1F (stereo not drawn) [Example 65, 5-chloro-2-fluoro-4-((octahydrocyclopenta[c]pyrrol-4-yl)amino)-N-(thiazol-2-yl)benzenesulfonamide] | 98
7 | NCC1CCCC(CNc2cc(F)c(S(=O)(=O)Nc3nccs3)cc2Cl)C1 (stereo not drawn) [Example 32, 4-(((3-(Aminomethyl)cyclohexyl)methyl)amino)-5-chloro-2-fluoro-N-(thiazol-2-yl)benzenesulfonamide] | 28
8 | O=S(=O)(Nc1nccs1)c1cc(Cl)c(NCC2CCC(N3CCC3)CC2)cc1F (stereo not drawn) [Example 25, 4-(((4-(Azetidin-1-yl)cyclohexyl)methyl)amino)-5-chloro-2-fluoro-N-(thiazol-2-yl)benzenesulfonamide] | 50
9 | O=S(=O)(Nc1ncns1)c1cc(F)c(OCCC2(c3ccccc3)CCC(O)CC2)cc1F (stereo not drawn) [Example 48, 2,5-Difluoro-4-(2-(4-hydroxy-1-phenylcyclohexyl)ethoxy)-N-(1,2,4-thiadiazol-5-yl)benzenesulfonamide] | 117
10 | O=S(=O)(Nc1ncns1)c1cc(Cl)c(OCCC2(c3ccc(Cl)c(F)c3)CCNCC2)cc1F [Example 47, 5-Chloro-4-(2-(4-(4-chloro-3-fluorophenyl)piperidin-4-yl)ethoxy)-2-fluoro-N-(1,2,4-thiadiazol-5-yl)benzenesulfonamide] | 33
11 | NC1CCC(CCOc2cc(F)c(S(=O)(=O)Nc3ncns3)cc2F)(c2ccccc2)CC1 (single isomer, unassigned) [Example 50, 4-(2-(4-amino-1-phenylcyclohexyl)ethoxy)-2,5-difluoro-N-(1,2,4-thiadiazol-5-yl)benzenesulfonamide] | 473
12 | COCC1CCN(c2cc(F)c(S(=O)(=O)Nc3nccs3)cc2Cl)C1 (stereo not drawn) [Example 69, 5-chloro-2-fluoro-4-(3-(methoxymethyl)pyrrolidin-1-yl)-N-(thiazol-2-yl)benzenesulfonamide] | 568
13 | N[C@H]1CC[C@@H](CNc2cc(F)c(S(=O)(=O)Nc3nccs3)cc2Cl)CC1 [Example 20, 4-((((1s,4s)-4-Aminocyclohexyl)methyl)amino)-5-chloro-2-fluoro-N-(thiazol-2-yl)benzenesulfonamide] | 7
14 | O=S(=O)(Nc1nccs1)c1cc(Cl)c(NCC2CCC(N3CCOCC3)CC2)cc1F (stereo not drawn) [Example 26, 5-Chloro-2-fluoro-4-(((4-morpholinocyclohexyl)methyl)amino)-N-(thiazol-2-yl)benzenesulfonamide] | 27
15 | O=S(=O)(Nc1nccs1)c1cc(Cl)c(NCCC2(O)CCCC2)cc1F [Example 35, 5-Chloro-2-fluoro-4-((2-(1-hydroxycyclopentyl)ethyl)amino)-N-(thiazol-2-yl)benzenesulfonamide] | 101
16 | CN1CCN(C2CCC(CNc3cc(F)c(S(=O)(=O)Nc4nccs4)cc3Cl)CC2)CC1 (stereo not drawn) [Example 27, 5-Chloro-2-fluoro-4-(((4-(4-methylpiperazin-1-yl)cyclohexyl)methyl)amino)-N-(thiazol-2-yl)benzenesulfonamide] | 40
17 | O=S(=O)(Nc1nccs1)c1cc(Cl)c(NCC2(CN3CCCC3)CC2)cc1F [Example 12, 5-Chloro-2-fluoro-4-(((1-(pyrrolidin-1-ylmethyl)cyclopropyl)methyl)amino)-N-(thiazol-2-yl)benzenesulfonamide] | 11
18 | CNC1CCC(CNc2cc(F)c(S(=O)(=O)Nc3nccs3)cc2Cl)CC1 (stereo not drawn) [Example 23, 5-Chloro-4-(((4-(methylamino)cyclohexyl)methyl)amino)-2-fluoro-N-(thiazol-2-yl)benzenesulfonamide] | 16
19 | O=S(=O)(Nc1nccs1)c1cc(Cl)c(NCCC2CCCCN2O)cc1F (stereo not drawn) [Example 75, 5-chloro-2-fluoro-4-((2-(1-hydroxypiperidin-2-yl)ethyl)amino)-N-(thiazol-2-yl)benzenesulfonamide] | 41
20 | O=S(=O)(Nc1nccs1)c1cc(Cl)c(NCCC2CCNC2)cc1F (stereo not drawn) [Example 13, 5-Chloro-2-fluoro-4-((2-(pyrrolidin-3-yl)ethyl)amino)-N-(thiazol-2-yl)benzenesulfonamide] | 17
21 | NC1CCC(COc2cc(F)c(S(=O)(=O)Nc3ncns3)cc2F)(Cc2ccc(Cl)c(F)c2)CC1 (single isomer, unassigned) [Example 62, 4-((4-amino-1-(4-chloro-3-fluorobenzyl)cyclohexyl)methoxy)-2,5-difluoro-N-(1,2,4-thiadiazol-5-yl)benzenesulfonamide] | 55
22 | CN(C)C1CCC(CNc2cc(F)c(S(=O)(=O)Nc3nccs3)cc2Cl)CC1 (stereo not drawn) [Example 24, 5-Chloro-4-(((4-(dimethylamino)cyclohexyl)methyl)amino)-2-fluoro-N-(thiazol-2-yl)benzenesulfonamide] | 69
23 | O=S(=O)(Nc1nccs1)c1cc(Cl)c(NCCC2CNC2)cc1F [Example 16, 4-((2-(Azetidin-3-yl)ethyl)amino)-5-chloro-2-fluoro-N-(thiazol-2-yl)benzenesulfonamide] | 29
24 | O=S(=O)(Nc1nccs1)c1cc(Cl)c(NCCC2CCCO2)cc1F (stereo not drawn) [Example 39, 5-Chloro-2-fluoro-4-((2-(tetrahydrofuran-2-yl)ethyl)amino)-N-(thiazol-2-yl)benzenesulfonamide] | 221
25 | N[C@H]1CC[C@H](CNc2cc(F)c(S(=O)(=O)Nc3nccs3)cc2Cl)CC1 [Example 21, 4-((((1r,4r)-4-Aminocyclohexyl)methyl)amino)-5-chloro-2-fluoro-N-(thiazol-2-yl)benzenesulfonamide] | 398
26 | NC1(CCNc2cc(F)c(S(=O)(=O)Nc3nccs3)cc2Cl)CCCCC1 [Example 29, 4-((2-(1-Aminocyclohexyl)ethyl)amino)-5-chloro-2-fluoro-N-(thiazol-2-yl)benzenesulfonamide] | 74
27 | O=S(=O)(Nc1nccs1)c1cc(Cl)c(NCC2CNCCO2)cc1F (stereo not drawn) [Example 6, 5-Chloro-2-fluoro-4-((morpholin-2-ylmethyl)amino)-N-(thiazol-2-yl)benzenesulfonamide] | 67
